ChEMBL document CHEMBL3817835, “Progress in the development of small molecules as new human A3adenosine receptor ligands based on the 3-thiophenylcoumarin core” (Medchemcomm, 2016)

Key:
Adenosine receptor A1 = biological target: T1, Adenosine receptor A1 (Homo sapiens, UniProt P30542); assay: Displacement of [3H]CCPA from human A1 adenosine receptor expressed in CHO cells; type: cell-based
T1 sequence (P30542 whole entry): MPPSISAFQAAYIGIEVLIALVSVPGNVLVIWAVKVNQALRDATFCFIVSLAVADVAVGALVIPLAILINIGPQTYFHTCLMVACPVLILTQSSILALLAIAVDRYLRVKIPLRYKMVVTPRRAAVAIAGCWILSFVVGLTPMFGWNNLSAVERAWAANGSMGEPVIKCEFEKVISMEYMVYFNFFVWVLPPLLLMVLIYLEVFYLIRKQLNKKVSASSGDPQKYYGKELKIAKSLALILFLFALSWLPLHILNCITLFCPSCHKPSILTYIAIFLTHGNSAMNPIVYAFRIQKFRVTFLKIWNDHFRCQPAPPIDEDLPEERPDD

Adenosine receptor A2a = Adenosine receptor A2a (Homo sapiens, UniProt P29274); assay: Displacement of [3H]NECA from human A2A adenosine receptor expressed in CHO cells; type: cell-based
Sequence of Adenosine receptor A2a (P29274 whole entry): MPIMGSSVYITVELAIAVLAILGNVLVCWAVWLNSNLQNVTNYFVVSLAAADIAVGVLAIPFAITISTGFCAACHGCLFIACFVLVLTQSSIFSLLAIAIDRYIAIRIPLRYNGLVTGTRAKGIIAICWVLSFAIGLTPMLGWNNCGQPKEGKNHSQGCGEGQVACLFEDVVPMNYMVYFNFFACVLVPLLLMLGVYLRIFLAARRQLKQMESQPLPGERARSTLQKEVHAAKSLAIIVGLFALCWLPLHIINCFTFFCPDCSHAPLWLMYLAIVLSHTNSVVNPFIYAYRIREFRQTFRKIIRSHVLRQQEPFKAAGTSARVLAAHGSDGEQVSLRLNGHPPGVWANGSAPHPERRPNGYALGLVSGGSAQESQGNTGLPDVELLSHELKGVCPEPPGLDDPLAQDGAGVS

Adenosine receptor A3 = Adenosine receptor A3 (Homo sapiens, UniProt P0DMS8); assay: Displacement of [3H]HEMADO from human A3 adenosine receptor expressed in CHO cells; type: cell-based
Sequence of Adenosine receptor A3 (P0DMS8 whole entry, looked up): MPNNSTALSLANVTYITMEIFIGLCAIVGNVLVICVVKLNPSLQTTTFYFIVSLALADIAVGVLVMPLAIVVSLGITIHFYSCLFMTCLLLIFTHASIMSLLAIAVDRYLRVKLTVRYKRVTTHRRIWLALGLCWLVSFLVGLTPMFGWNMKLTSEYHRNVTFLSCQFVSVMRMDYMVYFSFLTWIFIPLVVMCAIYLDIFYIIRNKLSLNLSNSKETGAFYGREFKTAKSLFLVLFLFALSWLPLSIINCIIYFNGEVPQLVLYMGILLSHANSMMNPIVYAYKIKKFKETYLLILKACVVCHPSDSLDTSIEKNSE

Adenosine receptor A2b = biological target: T2, Adenosine receptor A2b (Homo sapiens, UniProt P29275); assay: Antagonist activity at human A2B adenosine receptor assessed as inhibition of NECA-stimulated adenylyl cyclase activity; type: functional
T2 sequence (P29275 whole entry): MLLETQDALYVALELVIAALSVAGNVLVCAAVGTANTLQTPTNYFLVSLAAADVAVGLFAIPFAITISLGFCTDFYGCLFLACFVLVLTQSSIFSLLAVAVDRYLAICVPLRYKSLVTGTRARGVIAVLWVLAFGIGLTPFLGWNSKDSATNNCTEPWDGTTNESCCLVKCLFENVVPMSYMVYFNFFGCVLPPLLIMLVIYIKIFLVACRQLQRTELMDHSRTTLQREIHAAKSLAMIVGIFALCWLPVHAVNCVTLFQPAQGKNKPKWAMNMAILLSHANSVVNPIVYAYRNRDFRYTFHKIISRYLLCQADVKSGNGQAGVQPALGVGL

[1] = biological target: Adenosine receptors; A1 & A3 (Homo sapiens) (UniProt P30542+P0DMS8); assay: Selectivity index, ratio of Ki for human A1 adenosine receptor to Ki for human A3 adenosine receptor
Homo sapiens = species: Homo sapiens; assay: Selectivity index, ratio of Ki for human A2 adenosine receptor to Ki for human A3 adenosine receptor

CC(=O)Oc1cccc2cc(-c3cc(Br)cs3)c(=O)oc12
Ki (Adenosine receptor A1): > 100 µM
Ki (Adenosine receptor A2a): > 100 µM
Ki (Adenosine receptor A3): 4.08 µM
Ki (Adenosine receptor A2b): > 30 µM

CC(=O)Oc1cccc2cc(-c3cccs3)c(=O)oc12
Ki (Adenosine receptor A1): > 100 µM
Ki (Adenosine receptor A2a): 18.8 µM
Ki (Adenosine receptor A3): 2.58 µM
Ki (Adenosine receptor A2b): > 30 µM

CC(=O)Oc1ccc2cc(-c3cccs3)c(=O)oc2c1OC(C)=O
Ki (Adenosine receptor A1): > 100 µM
Ki (Adenosine receptor A2a): > 100 µM
Ki (Adenosine receptor A3): 22.5 µM
Ki (Adenosine receptor A2b): > 30 µM

O=c1oc2c(O)c(O)ccc2cc1-c1ccsc1
Ki (Adenosine receptor A1): 3.36 µM
Ki (Adenosine receptor A2a): 14.7 µM
Ki (Adenosine receptor A3): 5.31 µM
Ki (Adenosine receptor A2b): > 30 µM

CC(=O)Oc1cccc2cc(-c3ccsc3)c(=O)oc12
Ki (Adenosine receptor A1): > 100 µM
Ki (Adenosine receptor A2a): 14.7 µM
Ki (Adenosine receptor A3): 1.82 µM
Ki (Adenosine receptor A2b): > 30 µM

O=c1oc2c(O)cccc2cc1-c1cccs1
Ki (Adenosine receptor A1): 3.36 µM
Ki (Adenosine receptor A2a): 7.48 µM
Ki (Adenosine receptor A3): 1.43 µM
Ki (Adenosine receptor A2b): > 30 µM

CC(=O)Oc1ccc2cc(-c3ccsc3)c(=O)oc2c1OC(C)=O
Ki (Adenosine receptor A1): > 100 µM
Ki (Adenosine receptor A2a): 20.6 µM
Ki (Adenosine receptor A3): 3.6 µM
Ki (Adenosine receptor A2b): > 30 µM

O=c1oc2c(O)c(O)ccc2cc1-c1cc(Br)cs1
Ki (Adenosine receptor A1): 16.3 µM
Ki (Adenosine receptor A2a): 12.2 µM
Ki (Adenosine receptor A3): 3.4 µM
Ki (Adenosine receptor A2b): > 30 µM

O=c1oc2c(O)cccc2cc1-c1ccsc1
Ki (Adenosine receptor A1): 5.92 µM
Ki (Adenosine receptor A2a): 9.87 µM
Ki (Adenosine receptor A3): 2.87 µM
Ki (Adenosine receptor A2b): > 30 µM

O=c1oc2c(O)cccc2cc1-c1cc(Br)cs1
Ki (Adenosine receptor A1): > 100 µM
Ki (Adenosine receptor A2a): > 100 µM
Ki (Adenosine receptor A3): 0.746 µM
Ki (Adenosine receptor A2b): > 30 µM
Ratio Ki [1]: 130
Ratio Ki (Homo sapiens): 130

CC(=O)Oc1ccc2cc(-c3cc(Br)cs3)c(=O)oc2c1OC(C)=O
Ki (Adenosine receptor A1): > 100 µM
Ki (Adenosine receptor A2a): > 100 µM
Ki (Adenosine receptor A3): > 100 µM
Ki (Adenosine receptor A2b): > 30 µM

O=c1oc2c(O)c(O)ccc2cc1-c1cccs1
Ki (Adenosine receptor A1): 3.23 µM
Ki (Adenosine receptor A2a): 9.98 µM
Ki (Adenosine receptor A3): 4.83 µM
Ki (Adenosine receptor A2b): > 30 µM
